# Columns and labels:
# [1] = tested on: PC-12; assay: Neuroprotection against Amyloid beta (25 to 35)-induced toxicity in rat PC-12 cells assessed as increase in cell viability at 50 uM for 24 hrs by MTT assay relative to control; type: functional
# [2] = tested on: PC-12; assay: Neuroprotection against Amyloid beta (25 to 35)-induced toxicity in rat PC-12 cells assessed as increase in cell viability at 25 uM for 24 hrs by MTT assay relative to control; type: functional
# [3] = tested on: PC-12; assay: Neuroprotection against Amyloid beta (25 to 35)-induced toxicity in rat PC-12 cells assessed as increase in cell viability at 10 uM for 24 hrs by MTT assay relative to control; type: functional
# [4] = Permeability of the compound by PAMPA-BBB assay; type: ADME; conditions: read-out: permeability
# [5] = target: Aldo-keto reductase family 1 member B1 (Homo sapiens, UniProt P15121); assay: Inhibition of aldose reductase (unknown origin) using DL-glyceraldehyde as substrate
# [6] = tested on: HL-60; assay: Anti-cancer activity against human HL-60 cells; type: functional, cell-based
# [7] = tested on: PC-12; assay: Neurotrophic activity in rat PC-12 cells assessed as induction of NGF-mediated neurite outgrowth at 10 uM measured after 72 hrs relative to control; type: functional
# [8] = Antioxidant activity assessed as DPPH radical scavenging activity incubated for 30 mins by spectrophotometric analysis; type: functional
# [9] = tested on: SGC-7901; assay: Anti-cancer activity against human SGC-7901 cells; type: functional, cell-based
# [10] = target: Nitric oxide synthase, inducible (Homo sapiens, UniProt P35228); assay: Inhibition of iNOS (unknown origin)
# Chain of Nitric oxide synthase, inducible (P35228 whole entry): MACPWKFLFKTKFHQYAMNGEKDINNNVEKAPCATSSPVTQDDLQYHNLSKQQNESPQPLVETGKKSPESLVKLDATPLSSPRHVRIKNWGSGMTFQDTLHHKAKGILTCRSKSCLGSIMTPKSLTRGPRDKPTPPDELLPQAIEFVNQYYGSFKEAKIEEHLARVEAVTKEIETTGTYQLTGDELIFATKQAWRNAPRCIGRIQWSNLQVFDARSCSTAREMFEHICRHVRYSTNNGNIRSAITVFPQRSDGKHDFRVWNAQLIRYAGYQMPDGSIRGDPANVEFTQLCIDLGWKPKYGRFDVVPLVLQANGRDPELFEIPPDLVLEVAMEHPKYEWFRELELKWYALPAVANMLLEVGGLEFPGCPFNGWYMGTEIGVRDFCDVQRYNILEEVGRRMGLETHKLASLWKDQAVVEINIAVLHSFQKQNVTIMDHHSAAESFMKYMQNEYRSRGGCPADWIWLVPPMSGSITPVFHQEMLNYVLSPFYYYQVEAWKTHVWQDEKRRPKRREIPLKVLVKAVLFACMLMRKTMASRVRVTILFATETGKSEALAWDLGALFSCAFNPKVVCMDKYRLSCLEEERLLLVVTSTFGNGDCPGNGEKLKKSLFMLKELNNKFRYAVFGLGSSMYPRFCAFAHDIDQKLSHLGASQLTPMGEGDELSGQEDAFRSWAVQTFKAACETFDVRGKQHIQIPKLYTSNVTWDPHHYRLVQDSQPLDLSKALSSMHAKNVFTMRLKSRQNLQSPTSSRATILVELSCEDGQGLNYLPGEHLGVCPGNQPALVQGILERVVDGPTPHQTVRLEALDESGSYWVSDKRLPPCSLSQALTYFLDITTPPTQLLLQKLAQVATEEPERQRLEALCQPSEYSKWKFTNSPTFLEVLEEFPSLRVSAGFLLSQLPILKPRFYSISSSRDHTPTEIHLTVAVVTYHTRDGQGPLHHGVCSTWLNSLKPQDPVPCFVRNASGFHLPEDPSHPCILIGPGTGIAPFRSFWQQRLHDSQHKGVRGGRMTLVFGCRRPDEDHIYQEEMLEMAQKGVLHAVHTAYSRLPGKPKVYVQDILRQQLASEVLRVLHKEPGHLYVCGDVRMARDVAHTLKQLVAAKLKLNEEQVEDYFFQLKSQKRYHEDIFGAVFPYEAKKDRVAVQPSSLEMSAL
# [11] = tested on: RAW264.7; assay: Antiinflammatory activity in mouse RAW264.7 cells assessed as inhibition of LPS-induced NO production at 25 uM measured after 24 hrs; type: functional
# [12] = Antioxidant activity assessed as DPPH radical scavenging activity at 100 ug/ml incubated for 30 mins by spectrophotometric analysis; type: functional; conditions: dose 100.0 µg/ml
# [13] = tested on: MDA-MB-231; assay: Cytotoxicity against human MDA-MB-231 cells assessed as cell viability incubated for 72 hrs by MTT assay; type: functional, cell-based; conditions: MDA-MB-231, 72 h
# [14] = tested on: HepG2; assay: Cytotoxicity against human HepG2 cells assessed as cell viability incubated for 72 hrs by MTT assay; type: functional, cell-based; conditions: HepG2, 72 h
# [15] = tested on: HT-29; assay: Cytotoxicity against human HT-29 cells assessed as cell viability incubated for 72 hrs by MTT assay; type: functional, cell-based; conditions: HT-29, 72 h
# [16] = tested on: THP-1; assay: Anti-cancer activity against human THP-1 cells; type: functional, cell-based
# [17] = target: Tyrosine-protein phosphatase non-receptor type 1 (Homo sapiens, UniProt P18031); assay: Inhibition of PTP1B (unknown origin)
# Chain of Tyrosine-protein phosphatase non-receptor type 1 (P18031 whole entry): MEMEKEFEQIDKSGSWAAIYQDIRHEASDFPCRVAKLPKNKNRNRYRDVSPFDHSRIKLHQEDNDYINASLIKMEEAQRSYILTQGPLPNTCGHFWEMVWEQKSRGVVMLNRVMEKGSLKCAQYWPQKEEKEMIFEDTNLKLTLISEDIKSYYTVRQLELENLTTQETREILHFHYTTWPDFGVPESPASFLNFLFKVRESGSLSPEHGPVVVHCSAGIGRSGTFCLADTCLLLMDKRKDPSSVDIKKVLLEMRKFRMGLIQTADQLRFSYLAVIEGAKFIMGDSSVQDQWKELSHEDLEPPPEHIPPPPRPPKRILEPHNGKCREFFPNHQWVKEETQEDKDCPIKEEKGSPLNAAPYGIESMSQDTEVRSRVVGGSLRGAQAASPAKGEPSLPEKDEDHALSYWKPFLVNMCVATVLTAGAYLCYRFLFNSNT
# [18] = tested on: NCI-H23; assay: Anti-cancer activity against human NCI-H23 cells; type: functional, cell-based
# [19] = tested on: K562; assay: Anti-cancer activity against human K562 cells; type: functional, cell-based
# [20] = tested on: Bel-7402; assay: Anti-cancer activity against human Bel-7402 cells; type: functional, cell-based
# [21] = tested on: NCI-H292; assay: Anti-cancer activity against human NCI-H292 cells; type: functional, cell-based
Compound,Activity [1] [%],Activity [2] [%],Activity [3] [%],also measured
COc1ccc(CCc2cc(OC)c(OCc3ccccc3)c(OC)c2)cc1OC,71,60.89,58.22,Papp [4]: 8.2 ×10⁻⁶ cm/s
CC(C)c1ccc(CCc2cc(O)cc(O)c2)cc1,,,,IC50 [5]: 513 µM
COc1cc(O)cc(CCc2ccc(O)cc2)c1,,,,IC50 [6]: 25.6 µM; Activity [7]: 12.08%
COc1ccc(CCc2cc(OC)c(OC(=O)CCc3ccccc3)c(OC)c2)cc1OC,49.84,50.22,54,
COc1cc(CCc2cc(OC)c3c(c2)O[C@@H](c2cc(OC)c(O)c(OC)c2)[C@H](CO)O3)ccc1O,,,,Activity [7]: 7.86%
COc1ccc(CCc2cc(OC)c(OCC(C)C)c(OC)c2)cc1OC,49.89,50.12,54.53,
COc1cccc(CCc2cc(O)c(O)c(OC)c2)c1,,,,IC50 [8]: 40.3 µM
Oc1cc(O)cc(CCc2ccc(F)cc2)c1,,,,IC50 [5]: 566 µM
COc1ccc(CCc2cc(OC)c(OC(=O)c3ccccn3)c(OC)c2)cc1OC,54.6,50.1,52.97,
COc1ccc(CCc2cc(OC)c(OCCC(C)C)c(OC)c2)cc1OC,49.48,50.16,50.21,
COc1ccc(CCc2cc(OC)c(OC(=O)CCC(C)C)c(OC)c2)cc1OC,49.57,50.4,49.83,
COc1ccc(CCc2cc(OC)c(OC(=O)c3ccncc3)c(OC)c2)cc1OC,46.56,50.71,53.53,
COc1ccc(CCc2cc(OC)c(O)c3c2C(Cc2ccc(O)cc2)c2cc(O)c(O)c(OC)c2O3)cc1 (centres undefined),,,,IC50 [8]: 32.4 µM
COc1cc(CCc2cc(O)c(OC)c(OC)c2)ccc1O,,,,IC50 [9]: 16.7 µM
COc1cccc(CCc2ccc(O)c(O)c2)c1O,,,,IC50 [5]: 126 µM; IC50 [10]: 434 µM
COc1cc(C[C@H](O)c2cc(O)cc(O)c2)ccc1O,,,,inhibition at 25 µM [11]: 15%
COC1=CC(O)(CCc2ccc(O)c(OC)c2)C=C(OC)C1=O,,,,inhibition [12]: 35.3%; inhibition at 25 µM [11]: 19.7%
O=C1O[C@H]([C@@H](O)CO)C(O)=C1O [ASCORBIC ACID],,,,IC50 [8]: 23.2 µM
COc1cc(CCc2ccc(O)c(O)c2)cc(OC)c1,,,,IC50 [5]: 39.2 µM

Compound,Activity [1] [%],Activity [2] [%],Activity [3] [%],also measured
COc1ccc(CCc2cc(OC)c3c(c2)O[C@H](c2cc(O)c(O)c(OC)c2)[C@@H](c2ccc(OC)cc2)O3)cc1,,,,IC50 [13]: 42.5 µM; IC50 [14]: 89.7 µM; IC50 [15]: 52 µM; IC50 [8]: 21.3 µM
COc1cc(CCc2cc(O)cc(O)c2)ccc1O [TRISTIN],,,,IC50 [6]: 29.1 µM; IC50 [16]: 13.5 µM; IC50 [17]: 21.2 µM; inhibition at 25 µM [11]: 27.2%
CCCCC(CC)Oc1c(OC)cc(CCc2ccc(OC)c(OC)c2)cc1OC (centres undefined),58.88,54.78,51.03,
COc1cc(O)cc(CCc2ccc(O)c(O)c2)c1,,,,IC50 [5]: 176 µM; IC50 [10]: 680 µM
COc1ccc(CCc2cc(OC)c(OC(=O)C(C)C)c(OC)c2)cc1OC,45.91,47.33,49.34,
COc1cc(CCc2cc(OC)c(OC)c(OC)c2)ccc1O,,,,IC50 [18]: 158 µM; IC50 [8]: 21.8 µM
CCCOc1c(OC)cc(CCc2ccc(OC)c(OC)c2)cc1OC,48.81,49.11,49.21,
COc1ccc(CCc2cc(OC)c(OC(=O)c3ccc(Cl)cc3)c(OC)c2)cc1OC,95.62,69.24,56.41,Papp [4]: 6.2 ×10⁻⁶ cm/s
CCC(=O)Oc1c(OC)cc(CCc2ccc(OC)c(OC)c2)cc1OC,44.4,44.21,45.31,
CCO[C@@H](Cc1ccc(O)cc1)c1cc(O)c(O)c(OC)c1,,,,IC50 [8]: 34.5 µM
CCCCC(=O)Oc1c(OC)cc(CCc2ccc(OC)c(OC)c2)cc1OC,48.63,41.9,49.73,
Oc1ccc(CCc2cc(Cl)ccc2O)cc1O,,,,IC50 [5]: 21.8 µM
COc1cc2c(c(OC)c1O)-c1c(OC)cc(CCc3cccc(O)c3)cc1O[C@H]2[C@H](O)CO,,,,IC50 [19]: 10.3 µM; IC50 [20]: 10 µM
Oc1cc(O)cc(CCc2ccc3c(c2)OCO3)c1,,,,inhibition [12]: 88%; inhibition at 25 µM [11]: 22.1%
CCCC(CCC)C(=O)Oc1c(OC)cc(CCc2ccc(OC)c(OC)c2)cc1OC,60.02,55.21,50.11,
COc1cc(CCc2cccc(O)c2)cc(O)c1OC,,,,IC50 [19]: 15.7 µM; IC50 [9]: 7.8 µM; IC50 [20]: 11.7 µM
CCCCOc1c(OC)cc(CCc2ccc(OC)c(OC)c2)cc1OC,53.44,52.03,51.79,
CCOc1c(OC)cc(CCc2ccc(OC)c(OC)c2)cc1OC,46.15,50.92,53.84,
COc1ccc(CC2c3cc(O)cc(CCc4ccc(O)cc4)c3Oc3c2cc(O)c(OC)c3O)cc1 (centres undefined),,,,IC50 [6]: 2.1 µM

Compound,Activity [1] [%],Activity [2] [%],Activity [3] [%],also measured
COc1ccc(CCc2cc(OC)c(OC)c(OC)c2)cc1OC,,,,IC50 [18]: 252 µM
COc1cc(O)cc(CCc2cccc(O)c2)c1 [BATATASIN III],,,,Activity [7]: 8.2%; inhibition [12]: 36.3%; inhibition at 25 µM [11]: 21.6%
COc1cc(CCc2ccc(O)c(O)c2)cc(OC)c1O,,,,IC50 [5]: 17.8 µM
CCCC(=O)Oc1c(OC)cc(CCc2ccc(OC)c(OC)c2)cc1OC,49.37,50.12,54.89,
COc1ccc(CC2C3=C(Cc4c2cc(O)c(O)c4OC)C(=O)c2cc(O)c4cc(O)ccc4c2C3=O)cc1 (centres undefined),,,,IC50 [8]: 19.8 µM
Oc1ccc(CCc2ccc(O)c(O)c2)cc1O,,,,IC50 [5]: 534 µM
CCCCC(C)Oc1c(OC)cc(CCc2ccc(OC)c(OC)c2)cc1OC (centres undefined),52.18,50.25,50.67,
COc1cc(CCc2cccc(O)c2)cc(OC)c1O,,,,IC50 [6]: 4.48 µM; IC50 [9]: 12.8 µM
COc1ccc(CC2c3cc(O)c(O)c(OC)c3Oc3cc(O)c4c(c32)CCc2cc(O)ccc2-4)cc1 (centres undefined),,,,IC50 [13]: 25.2 µM; IC50 [14]: 51.3 µM; IC50 [15]: 30.4 µM
COc1cc(CCc2cc(O)c(O)c(OC)c2)ccc1O,,,,IC50 [21]: 96.6 µM
CCC(C)Oc1c(OC)cc(CCc2ccc(OC)c(OC)c2)cc1OC (centres undefined),48.75,49.73,49.02,
COc1ccc(CCc2cc(O)c(OC)c3c2Oc2c(cc(O)c(OC)c2O)C3Cc2ccc(OC)cc2)cc1 (centres undefined),,,,IC50 [6]: 6.4 µM
COc1ccc(CCc2cc(OC)c(OC(=O)c3ccccc3)c(OC)c2)cc1OC,100.78,80.12,58.18,Papp [4]: 6.9 ×10⁻⁶ cm/s
COc1cc([C@H](Cc2ccc(O)cc2)OC)cc(O)c1O,,,,IC50 [8]: 34.2 µM
COc1ccc(CCc2cc(OC)c(OC3CCCC3)c(OC)c2)cc1OC,72.64,61.02,54.77,Papp [4]: 7.6 ×10⁻⁶ cm/s
COc1cc(CC(O)c2cc(OC)c(O)c(OC)c2)ccc1O (centres undefined) [NOBILIN D],,,,IC50 [8]: 19.9 µM
COc1cc([C@@H]2Oc3cc(CCc4ccc(O)cc4)cc(OC)c3O[C@H]2CO)cc(OC)c1O,,,,Activity [7]: 9.46%
COc1cc(CCc2ccc(O)c(O)c2)cc(O)c1O,,,,IC50 [8]: 15.6 µM
COc1cc(CCc2ccc(O)cc2)cc(OC)c1O,,,,IC50 [21]: 198 µM; Activity [7]: 6.94%

# Source: ChEMBL document CHEMBL5244253, “Recent research progress on natural small molecule bibenzyls and its derivatives in Dendrobium species” (Eur J Med Chem, 2020)
